Test results as given in ChEMBL document CHEMBL1140636, “Targeting cytochrome P450 enzymes: a new approach in anti-cancer drug development” (Bioorg Med Chem, 2007).

Columns and labels:
Cytochrome P450 1A1 = target: T1, Cytochrome P450 1A1 (Homo sapiens, UniProt P04798); assay: Inhibition of CYP1A1; format: ADME
T1 sequence (P04798 whole entry): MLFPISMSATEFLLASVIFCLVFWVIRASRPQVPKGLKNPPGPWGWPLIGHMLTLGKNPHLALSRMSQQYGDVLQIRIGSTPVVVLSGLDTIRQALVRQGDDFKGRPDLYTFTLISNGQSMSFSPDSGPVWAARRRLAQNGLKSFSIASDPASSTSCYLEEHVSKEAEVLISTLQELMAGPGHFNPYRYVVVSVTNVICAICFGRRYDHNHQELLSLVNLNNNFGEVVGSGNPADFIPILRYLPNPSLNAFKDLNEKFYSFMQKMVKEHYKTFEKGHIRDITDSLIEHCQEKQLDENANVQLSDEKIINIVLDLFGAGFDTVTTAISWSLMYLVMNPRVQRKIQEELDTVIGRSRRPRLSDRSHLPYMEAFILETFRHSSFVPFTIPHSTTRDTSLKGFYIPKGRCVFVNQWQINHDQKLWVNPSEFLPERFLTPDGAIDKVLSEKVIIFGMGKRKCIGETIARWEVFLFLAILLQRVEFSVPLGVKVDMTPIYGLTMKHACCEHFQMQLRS

Cytochrome P450 1B1 = target: T2, Cytochrome P450 1B1 (Homo sapiens, UniProt Q16678); assay: Inhibition of CYP1B1; format: ADME
T2 sequence (Q16678 whole entry): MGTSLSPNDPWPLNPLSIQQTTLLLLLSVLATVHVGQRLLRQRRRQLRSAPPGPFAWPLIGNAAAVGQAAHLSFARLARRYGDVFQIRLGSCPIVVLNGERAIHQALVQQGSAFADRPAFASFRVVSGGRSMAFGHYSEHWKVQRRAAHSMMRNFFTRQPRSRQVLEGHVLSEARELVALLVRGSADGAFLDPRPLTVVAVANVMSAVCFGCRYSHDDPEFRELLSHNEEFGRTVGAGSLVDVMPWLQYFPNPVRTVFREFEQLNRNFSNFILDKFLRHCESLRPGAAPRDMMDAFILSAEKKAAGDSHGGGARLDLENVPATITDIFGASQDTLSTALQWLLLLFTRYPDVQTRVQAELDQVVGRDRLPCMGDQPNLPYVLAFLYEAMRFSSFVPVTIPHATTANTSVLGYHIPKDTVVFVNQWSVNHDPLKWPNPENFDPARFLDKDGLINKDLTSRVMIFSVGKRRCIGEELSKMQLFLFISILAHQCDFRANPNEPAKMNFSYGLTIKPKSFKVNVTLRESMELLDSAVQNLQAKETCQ

Cytochrome P450 1A2 = target: T3, Cytochrome P450 1A2 (Homo sapiens, UniProt P05177); assay: Inhibition of CYP1A2; format: ADME
T3 sequence (P05177 whole entry): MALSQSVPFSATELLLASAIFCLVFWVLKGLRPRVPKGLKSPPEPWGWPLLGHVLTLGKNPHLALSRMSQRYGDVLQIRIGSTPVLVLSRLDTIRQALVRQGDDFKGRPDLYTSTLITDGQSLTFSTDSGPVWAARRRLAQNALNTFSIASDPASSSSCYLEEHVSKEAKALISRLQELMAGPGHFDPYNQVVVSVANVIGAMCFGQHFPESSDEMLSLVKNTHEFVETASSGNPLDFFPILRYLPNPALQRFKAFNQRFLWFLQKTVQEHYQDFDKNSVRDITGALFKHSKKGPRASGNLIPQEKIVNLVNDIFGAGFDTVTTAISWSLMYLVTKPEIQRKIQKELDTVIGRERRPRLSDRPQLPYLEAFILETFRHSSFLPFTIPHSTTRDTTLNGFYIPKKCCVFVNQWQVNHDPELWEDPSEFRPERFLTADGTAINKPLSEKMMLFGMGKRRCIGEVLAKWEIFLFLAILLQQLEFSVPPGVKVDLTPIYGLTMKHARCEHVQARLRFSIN

[1] = target: T4, 25-hydroxyvitamin D-1 alpha hydroxylase, mitochondrial (Homo sapiens, UniProt O15528); assay: Inhibition of CYP27B1 in human keratinocytes; format: cell-based
T4 sequence (O15528 whole entry): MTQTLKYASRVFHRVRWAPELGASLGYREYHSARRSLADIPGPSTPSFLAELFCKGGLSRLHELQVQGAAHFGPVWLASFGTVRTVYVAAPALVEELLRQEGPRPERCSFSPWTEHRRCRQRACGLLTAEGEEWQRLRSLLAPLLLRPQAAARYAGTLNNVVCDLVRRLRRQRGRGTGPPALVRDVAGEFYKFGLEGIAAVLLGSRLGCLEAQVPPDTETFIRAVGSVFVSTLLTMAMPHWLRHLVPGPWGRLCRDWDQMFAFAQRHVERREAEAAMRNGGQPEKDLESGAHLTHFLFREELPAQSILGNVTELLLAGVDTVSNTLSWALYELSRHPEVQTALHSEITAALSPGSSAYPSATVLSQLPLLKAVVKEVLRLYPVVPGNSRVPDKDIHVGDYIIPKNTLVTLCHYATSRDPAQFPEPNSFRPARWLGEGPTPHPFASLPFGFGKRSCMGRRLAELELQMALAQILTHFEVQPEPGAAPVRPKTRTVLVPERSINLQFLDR

[2] = target: T5, 1,25-dihydroxyvitamin D(3) 24-hydroxylase, mitochondrial (Homo sapiens, UniProt Q07973); assay: Inhibition of CYP24 in human keratinocytes; format: cell-based
T5 sequence (Q07973 whole entry): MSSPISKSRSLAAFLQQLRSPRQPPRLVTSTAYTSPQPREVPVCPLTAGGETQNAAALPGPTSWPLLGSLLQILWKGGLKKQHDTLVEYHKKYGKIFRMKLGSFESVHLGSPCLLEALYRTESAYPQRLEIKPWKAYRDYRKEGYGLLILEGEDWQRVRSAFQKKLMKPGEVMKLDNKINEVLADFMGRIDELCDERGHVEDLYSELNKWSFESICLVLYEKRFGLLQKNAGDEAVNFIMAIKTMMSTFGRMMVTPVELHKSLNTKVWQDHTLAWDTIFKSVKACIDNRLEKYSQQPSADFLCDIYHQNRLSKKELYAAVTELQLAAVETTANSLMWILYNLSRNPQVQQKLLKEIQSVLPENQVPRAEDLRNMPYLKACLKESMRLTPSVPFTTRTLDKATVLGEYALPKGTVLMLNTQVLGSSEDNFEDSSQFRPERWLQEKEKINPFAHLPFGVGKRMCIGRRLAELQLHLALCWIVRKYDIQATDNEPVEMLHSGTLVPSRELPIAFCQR

[3] = target: T6, Sterol 26-hydroxylase, mitochondrial (Homo sapiens, UniProt Q02318); assay: Inhibition of CYP27A1
T6 sequence (Q02318 whole entry): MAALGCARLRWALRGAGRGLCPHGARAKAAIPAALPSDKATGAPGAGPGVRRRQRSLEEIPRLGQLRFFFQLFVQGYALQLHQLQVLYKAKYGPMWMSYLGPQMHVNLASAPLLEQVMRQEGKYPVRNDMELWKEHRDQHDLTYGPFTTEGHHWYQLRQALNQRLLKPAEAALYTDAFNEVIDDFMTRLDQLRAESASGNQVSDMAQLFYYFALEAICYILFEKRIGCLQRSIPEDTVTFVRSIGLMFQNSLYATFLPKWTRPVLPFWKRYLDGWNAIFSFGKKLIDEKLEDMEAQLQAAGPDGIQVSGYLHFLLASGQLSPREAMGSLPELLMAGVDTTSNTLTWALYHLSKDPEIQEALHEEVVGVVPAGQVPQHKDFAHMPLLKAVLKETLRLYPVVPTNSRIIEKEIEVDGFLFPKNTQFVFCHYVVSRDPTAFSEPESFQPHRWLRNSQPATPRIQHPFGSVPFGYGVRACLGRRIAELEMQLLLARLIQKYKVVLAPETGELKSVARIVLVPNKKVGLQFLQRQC

[4] = target: T5, 1,25-dihydroxyvitamin D(3) 24-hydroxylase, mitochondrial; assay: Inhibition of CYP24
[5] = target: T4, 25-hydroxyvitamin D-1 alpha hydroxylase, mitochondrial; assay: Inhibition of CYP27B1
Cytochrome P450 26A1 = target: T7, Cytochrome P450 26A1 (Homo sapiens, UniProt O43174); assay: Inhibition of CYP26
T7 sequence (O43174 whole entry): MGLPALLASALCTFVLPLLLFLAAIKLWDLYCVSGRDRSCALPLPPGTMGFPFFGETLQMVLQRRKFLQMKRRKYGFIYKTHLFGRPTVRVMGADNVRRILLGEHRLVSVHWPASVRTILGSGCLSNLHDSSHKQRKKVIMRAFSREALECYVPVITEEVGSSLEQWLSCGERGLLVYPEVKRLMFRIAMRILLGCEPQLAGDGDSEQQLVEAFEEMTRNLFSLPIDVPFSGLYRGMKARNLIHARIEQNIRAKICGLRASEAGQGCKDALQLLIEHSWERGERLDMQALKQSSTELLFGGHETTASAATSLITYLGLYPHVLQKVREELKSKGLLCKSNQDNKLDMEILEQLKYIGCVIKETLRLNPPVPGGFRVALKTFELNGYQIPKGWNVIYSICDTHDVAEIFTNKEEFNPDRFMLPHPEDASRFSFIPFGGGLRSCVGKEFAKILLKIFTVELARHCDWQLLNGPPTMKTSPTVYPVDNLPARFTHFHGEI

[6] = target: T8, Aryl hydrocarbon receptor (Homo sapiens, UniProt P35869); assay: Inhibition of aryl hydrocarbon receptor
T8 sequence (P35869 whole entry): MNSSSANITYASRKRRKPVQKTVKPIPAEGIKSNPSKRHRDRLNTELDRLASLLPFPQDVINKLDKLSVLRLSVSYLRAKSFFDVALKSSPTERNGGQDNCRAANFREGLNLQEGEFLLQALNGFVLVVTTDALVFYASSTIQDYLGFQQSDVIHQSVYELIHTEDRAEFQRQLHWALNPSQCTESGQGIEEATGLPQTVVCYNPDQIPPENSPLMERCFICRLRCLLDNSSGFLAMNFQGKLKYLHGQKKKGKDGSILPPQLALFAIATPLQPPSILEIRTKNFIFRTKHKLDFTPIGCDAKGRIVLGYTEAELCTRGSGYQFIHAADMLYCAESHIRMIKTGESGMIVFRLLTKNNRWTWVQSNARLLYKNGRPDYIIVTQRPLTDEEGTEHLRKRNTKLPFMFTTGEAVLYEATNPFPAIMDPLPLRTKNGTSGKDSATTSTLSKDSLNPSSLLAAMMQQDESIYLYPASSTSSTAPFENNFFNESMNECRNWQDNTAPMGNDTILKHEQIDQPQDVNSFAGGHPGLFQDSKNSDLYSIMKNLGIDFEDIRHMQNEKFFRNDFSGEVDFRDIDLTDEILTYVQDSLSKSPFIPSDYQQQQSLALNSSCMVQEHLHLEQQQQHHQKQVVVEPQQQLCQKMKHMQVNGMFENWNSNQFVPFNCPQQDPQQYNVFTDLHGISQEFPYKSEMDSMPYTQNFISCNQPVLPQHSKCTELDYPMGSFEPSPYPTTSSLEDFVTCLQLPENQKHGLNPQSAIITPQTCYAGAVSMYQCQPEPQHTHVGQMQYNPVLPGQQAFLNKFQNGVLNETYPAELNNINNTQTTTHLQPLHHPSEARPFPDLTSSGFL

[7] = Inhibition of cigarette smoke condensate-induced growth of immortalized human BEAS-2B cells by soft agar colony assay; format: functional

SMILES | IC50 (Cytochrome P450 1A1) | IC50 (Cytochrome P450 1B1) | IC50 (Cytochrome P450 1A2) | also measured
COc1cc(/C=C\c2cccs2)cc(OC)c1 | 61 nM | 2 nM | 11 nM | 
CC#Cc1ccc2c(ccc3ccccc32)c1 | 150 nM | 30 nM | 60 nM | 
O=C(NCC(c1ccccc1)n1ccnc1)c1ccc(-c2ccc(Cl)cc2)cc1 (stereo not drawn) |  |  |  | IC50 [1]: 616 nM; IC50 [2]: 15 nM
C=C1/C(=C\C=C2/CCC[C@]3(C)C([C@H](C)CC[S+](=N)([O-])c4ccccc4)=CCC23)C[C@@H](O)C[C@@H]1O (stereo partly drawn) |  |  |  | IC50 [3]: > 1000 nM; IC50 [4]: 7.4 nM; IC50 [5]: 554 nM
Clc1cccc(C(c2ccc3nc[nH]c3c2)N2C=NCC2)c1 (stereo not drawn) |  |  |  | IC50 (Cytochrome P450 26A1): 2200 nM
O=c1c(O)c(-c2ccc(O)cc2)oc2cc(O)cc(O)c12 [KAEMPFEROL] |  |  |  | IC50 [6]: 28 nM; IC90 [7]: 10 µM
Clc1ccc(-c2cc(Cl)c(Cl)c(Cl)c2)cc1Cl [POLYCHLORINATED BIPHENYL 126] |  | 11 nM |  | 
c1cc2ccc3cccc4ccc(c1)c2c34 [PYRENE] | 41 nM | 2 nM | 7 nM | 
